# Experimental data as given in BindingDB's records for doi:10.1016/s0960-894x(99)00089-x (Kyoto Pharmaceutical University, 1999).
# Assay: Inhibitory activity against HIV-1 IIIB in CEM-SS infected cells (Experiment 1)
structure (smiles),measurement,value
"Cc1cn([C@H]2C[C@H](N=[N+]=[N-])[C@@H](CO)O2)c(=O)[nH]c1=O [1-((2R,4S,5S)-4-Azido-5-hydroxymethyl-tetrahydro-furan-2-yl)-5-methyl-1H-pyrimidine-2,4-dione]",EC50,126 nM
